Experimental findings from ChEMBL document CHEMBL2021886, “Identification of a series of 1,3,4-oxadiazol-2-amines as potent alpha-7 agonists with efficacy in the novel object recognition model of cognition” (Bioorg Med Chem Lett, 2012) are described below.

One may read the clearance as the rate of elimination divided by the concentration. A higher clearance goes with a high capacity for elimination. As a reminder, the half-life is how long it takes for the measured level to halve. One may read the Kp as the ratio of the level in a tissue or fluid to that in plasma or blood. A word on the Papp: it is the rate of passage across a membrane or cell layer, normalised by area and donor concentration. A high value points to ready permeation.

The subject of series [1] is Liver. Kind of series: Clearance in rat liver assessed per gram of tissue. Format: ADME, tissue-based. The following applies: in vivo.
For series [2], the system named is Liver. Kind of series: Clearance in human liver assessed per gram of tissue. The class given is ADME, tissue-based.
Series [3] is described as follows: Blood clearance in Sprague-Dawley rat at 1 mg/kg, iv. The class given is ADME, organism-based. The arrangement: dose 1 mg/kg, route intravenous.
Series [4] can be described thus: Half life in Sprague-Dawley rat at 1 mg/kg, iv. Set-up: dose 1 mg/kg, route intravenous. The following applies: in vivo. Format: ADME, organism-based.
Series [5] can be described thus: Drug uptake in Lister Hooded rat blood at 3 mg/kg, po after 3 hrs. The class given is ADME, organism-based. The arrangement: dose 3 mg/kg, route oral. The following applies: read-out: Drug uptake.
Series [6] is described as follows: Ratio of drug level in brain to blood in Lister Hooded rat at 3 mg/kg, po after 3 hrs. The class given is ADME, organism-based. The arrangement: dose 3 mg/kg, route oral.
The test system of a further series is Blood. The experiment in a line: Drug level in novel object recognition model of rat blood at 0.1 mg/kg, po. The class given is ADME, organism-based. Set-up: dose 0.1 mg/kg, route oral. Particulars: in vivo, read-out: Drug uptake.
Series [7] in a line: Intrinsic permeability of the compound in MDCK cells expressing MDR1. The class given is ADME, cell-based, Canis lupus familiaris. Particulars: dog.

For `COc1cc(NC(=O)c2ccccc2F)ccc1-c1nnc(NCCCN2CCCCC2)o1.Cl`, the CLH with Liver [1] is < 0.5 mL/min/g; in the series on Liver [2] it was < 0.3 mL/min/g. In series [3], this compound came in with a clearance of 28 mL/min/kg. In addition, the half-life in series [4] was 3.2 h. The concentration at 3 h in series [5] is 270 nM. Besides, in series [6], the Kp at 3 h came out at 0.4.
Consider `COc1cc(NC(=O)c2ccccc2F)ccc1-c1nnc(NCCCN2CCOCC2)o1.Cl`, for which the figures for the CLH in the series with Liver [1] and with Liver [2] were < 0.5 mL/min/g and 0.5 mL/min/g, respectively. In addition, the clearance in series [3] came out at 41 mL/min/kg. This compound showed a half-life in series [4] of 0.6 h. Moreover, the concentration at 3 h in series [5] amounted to 294 nM. For the same compound, the Kp at 3 h in series [6] was determined as 0.12.
As to `Cl.O=C(Nc1ccc(-c2nnc(NCCCN3CCCCC3)o2)cc1)c1ccccc1F`, the CLH in the series with Liver [1] is < 0.2 mL/min/g; in the series on Liver [2], 0.5 mL/min/g. The clearance in series [3] was 67 mL/min/kg. For the same compound, in series [4], the half-life was 2.9 h. The concentration at 3 h in series [5] was 205 nM. Further, in series [6], the Kp at 3 h turned out to be 1.7.
On to `COc1cc(NC(=O)c2ccccc2F)ccc1-c1nnc(NCCCN2CCCCC2)o1`, for which the concentration in the series with Blood turned out to be 205 nM. This compound also came in with a Papp in series [7] of 32.5 ×10⁻⁶ cm/s.
